Values joined by “and” are separate entries in the source; they are usually repeats but may differ in a detail not shown here. Equal values may be shown once.
Legend:
[1] = test system: HCT 116 p53+/+; experiment: Monolayer antiproliferative MTS assay; type: cell-based, human; details: 2D monolayer; for IC50: MTS, 72-h incubation; for SI (selectivity index) HCT 116 p53+/+: relative to NHDF
Source text: (§1) The human colon carcinoma cell line HCT 116 with wild-type p53 (p53^+/+) and the human glioblastoma cell line U-251 were obtained from ATCC, while the HCT 116 with a p53 deletion (p53^−/−) was kindly provided by Prof. M. Rusin from the Maria Sklodowska-Curie Memorial Cancer Center and Institute of Oncology in Gliwice, Poland. The human chronic myelogenous leukaemia cell line K562 and the normal human cell dermal fibroblast cell line NHDF were purchased from Sigma-Aldrich and PromoCell, respectively. Both the HCT 116 and U-251 cell lines were cultured in Dulbecco’s modified Eagle’s medium (DMEM) supplemented with 10% inactivated foetal bovine serum (FBS). The DMEM for the NHDF contained 15% non-inactivated FBS. K562 cells were cultured in RPMI medium completed by 10% inactivated FBS. Additionally, the media were supplemented with antibiotics (streptomycin and penicillin – 1% v/v; Sigma-Aldrich). The cell culture was conducted in 75 cm^2 flasks (Nunc) under standard conditions (37 °C, 5% CO2 humidified atmosphere). Furthermore, the cell lines were frequently tested for mycoplasma using the qRT-PCR technique with specific Mycoplasma primers to confirm the lack of contamination.
(§2) The cells were seeded in 96-well plates (Nunc) with 5,000 or 4,000 cells per well for the cancer cells and NHDF, respectively, and incubated under standard conditions at 37 °C overnight. The culture media were then changed for freshly prepared solutions of the tested compounds in various concentrations. After 72-h incubation the antiproliferative assay was carried out as follows: the solutions of the compounds were changed in each well to 100 µL DMEM without phenol red and 20 µL of CellTiter 96 AQueous One Solution-MTS (Promega). The plates were incubated for 1 h at 37 °C, and the absorbance was then measured at 490 nm using a multi-plate reader (Synergy 4, BioTek). The experiment for each sample was repeated at least three times.
(§3) Additionally, the compounds were also tested for their cytotoxicity against normal cells – human dermal fibroblasts (NHDF).

[2] = test system: HCT 116 p53-/-; experiment: Monolayer antiproliferative MTS assay; type: cell-based, human; details: 2D monolayer; for IC50: MTS, 72-h incubation; for SI (selectivity index) HCT 116 p53-/-: relative to NHDF
Source text: as §1, §2, §3

[3] = test system: NHDF; experiment: Monolayer MTS cytotoxicity against normal cells; type: cell-based; details: normal human dermal fibroblasts, 72-h incubation
Source text: as §1, §2, §3

[4] = test system: U-251; experiment: Monolayer antiproliferative MTS assay; type: cell-based, human; details: 2D monolayer
Source text: as §1
as §2, with “times. The results are presented as the half-maximal inhibitory concentration (IC50) values, which were estimated in comparison to untreated cells (control) and calculated using GraphPad Prism v.8.0 (USA).” for “times.”
(§4) However, the antiproliferative activity of derivative 13 with furan a ring was surprising. […] For this purpose, we selected two pancreatic cancer cell lines: AsPC-1, which is characterised by a deletion of the p53 protein[20] and PANC-1, which carries an R273H mutation. This mutation also occurred in the glioblastoma U-251 cell line[22],[23]. An additional non-adherent line that carries the TP53 mutation that results in the absence of p53 is the K562 leukemic cell line[24]. […] Moreover, 13 was selective toward […], as indicated by its SI values (3.35–9.41). Among all of the tested cell lines, the highest activity of the compound was found against the HCT 116 cells with the wild-type p53 protein (0.069 µM). […] The p53 protein also interacts with the metabolic pathways that are associated with glucose transport[25] as well as small molecules. In light of the above-mentioned facts, we also determined the cytotoxicity of the GLUT inhibitor BAY-876, which is based on a quinoline scaffold. […] Furthermore, BAY-876 was also toxic to normal cells.

[5] = test system: K562; experiment: Monolayer antiproliferative MTS assay; type: cell-based, human; details: 2D model
Source text: as §1
as §2, with “times. The results are presented as the half-maximal inhibitory concentration (IC50) values, which were estimated in comparison to untreated cells (control) and calculated using GraphPad Prism v.8.0 (USA).” for “times.”
as §4

[6] = test system: GLUT-1; experiment: Western blot, GLUT-1 protein level; type: cell-based, human; details: HCT 116 p53+/+, DOX 5 µM, both time points (24 and 48 h)
Experimental: The cells (500,000) were seeded in 35 mm Petri dishes (Nunc) and incubated in a solution of the tested compound (0.5 µM and 1 µM) for 24 h and 48 h. The cells were then dissociated using trypsin, collected in Eppendorf tubes, and centrifuged at 2,000 rpm. Next, cell pellets were resuspended in complete RIPA buffer containing a Halt Protease Inhibitor Cocktail and Halt Phosphatase Inhibitor Cocktail along with 0.5 M EDTA (all reagents from Thermo Fisher Scientific) and lysed on ice for 20 min. Afterward, the lysates were sonicated and centrifuged at 10,000 rpm for 10 min at 4 °C. The obtained supernatants were collected for further analysis. The protein concentration was determined using a Micro BCA™ Protein Assay Kit (Thermo Fisher Scientific) according to the manufacturer’s procedure. Equal amounts of proteins (16 µg) were electrophoresed on SDS-Page gels and transferred onto nitrocellulose membranes. Novex Sharp Pre-Stained Protein Standard (Thermo Fisher Scientific) was used as a colored molecular weight marker. The membranes were blocked in 5% non-fat milk prepared in TPBS (PBS supplemented by 0.1% Tween-20) for 1 h. After blocking, the membranes were cut, and then incubated with specific primary monoclonal antibodies (all purchased from Cell Signaling) overnight at 4 °C. The antibodies for the target proteins (CDK1 Mouse mAb #9116, p53 Mouse mAb #2524, FAS Mouse mAb #8023, GLUT-1 Rabbit mAb #12939, HO-1 Rabbit mAb #5853, p21^Waf1/Cip1 Rabbit mAb #2947, PARP #9542) were diluted 1:1000, while the antibodies for the reference proteins (GAPDH Rabbit mAb #2118, β-actin Mouse mAb #3700, and vinculin Rabbit mAb #13901) were diluted 1:2000. The following day, the membranes were washed in TPBS and incubated with horseradish peroxidase (HRP)-conjugated secondary antibodies (Anti-rabbit IgG, HRP-linked Antibody #7074 or Anti-mouse IgG, HRP-linked Antibody #7076) for 1 h at room temperature. The membranes were then washed in TPBS and incubated with a SuperSignal™ West Pico Chemiluminescent Substrate (Thermo Fisher Scientific). Finally, the membranes were visualized using a ChemiDoc™ XRS + System (Bio-Rad). The experiments were carried out four to five times. The densitometric analysis was performed using ImageJ software (Wayne Rasband, National Institutes of Health, USA).
We, therefore, decided to test the effect of the tested compound on the level of the main glucose transporter, GLUT-1. […] The validity of the described conclusions was confirmed by the results that were obtained for doxorubicin. in which p53 activation occurred at both tested time points with a concomitant decrease in the GLUT-1 levels. […] The results that were obtained from the measurements of the expression of this protein were so interesting, and at the same time, inconclusive that we additionally decided to determine the effect of the tested derivative 13 on the expression of the genes encoding selected glucose transporters.

[7] = test system: PANC-1; experiment: Monolayer antiproliferative MTS assay; type: cell-based, human; details: 2D monolayer
Experimental: as §2, with “times. The results are presented as the half-maximal inhibitory concentration (IC50) values, which were estimated in comparison to untreated cells (control) and calculated using GraphPad Prism v.8.0 (USA).” for “times.”
as §4

[8] = test system: AsPC-1; experiment: Monolayer antiproliferative MTS assay; type: cell-based, human; details: 2D monolayer
Experimental: as §2, with “times. The results are presented as the half-maximal inhibitory concentration (IC50) values, which were estimated in comparison to untreated cells (control) and calculated using GraphPad Prism v.8.0 (USA).” for “times.”
as §4

Row | melting point | IC50 ([1]; Homo sapiens, HCT-116, 72 h) | IC50 ([2]; Homo sapiens, HCT-116, 72 h) | Compound | IC50 ([3]; NHDF) | SI (selectivity index) HCT 116 p53+/+ [1] | SI (selectivity index) HCT 116 p53-/- [2] | also measured
1 | – | – | – | Oc1cccc2ccc(/C=C/c3ccco3)nc12 [Compound 1] | – | – | – | IC50 [1]: > 25000 nM; IC50 [2]: > 25000 nM
2 | – | – | – | Cc1ccc(/C=C/c2ccc3cccc(O)c3n2)o1 [Compound 2] | – | – | – | IC50 [1]: > 25000 nM; IC50 [2]: > 25000 nM
3 | 189 to 191 °C | – | – | O=[N+]([O-])c1ccc(/C=C/c2ccc3cccc(O)c3n2)o1 [Compound 3] | – | – | – | –
4 | 173 to 175 °C | 200 ± 30 nM | 240 ± 50 nM | CC(=O)Oc1cccc2ccc(/C=C/c3ccc([N+](=O)[O-])o3)nc12 [Compound 4] | 670 ± 80 nM | 3.35 | 2.79 | –
5 | 306 to 308 °C | 300 ± 100 nM | 300 ± 70 nM | O=[N+]([O-])c1ccc(/C=C/c2cc(O)c3ccccc3n2)o1 [Compound 5] | 450 ± 70 nM | 1.50 | 1.50 | –
6 | – | – | – | Oc1c(Cl)cc(Cl)c2ccc(C=Cc3ccco3)nc12 [Compound 6] | – | – | – | IC50 [3]: > 25000 nM; IC50 [1]: 4000 nM and 4010 nM; IC50 [2]: 2700 nM and 2720 nM
7 | 270 to 271 °C | 3460 ± 340 nM | 1330 ± 250 nM | O=[N+]([O-])c1ccc(/C=C/c2ccc3c(Cl)cc(Cl)c(O)c3n2)o1 [Compound 7] | > 25000 nM | > 7.23 | > 18.80 | –
8 | 220 to 222 °C | 2080 ± 400 nM | 1120 ± 510 nM | CC(=O)Oc1c(Cl)cc(Cl)c2ccc(/C=C/c3ccc([N+](=O)[O-])o3)nc12 [Compound 8] | 11400 ± 2530 nM | 5.46 | 10.13 | –
9 | 161 to 163 °C | > 25000 nM | > 25000 nM | O=[N+]([O-])c1ccccc1/C=C/c1ccnc2ccccc12 [Compound 9] | – | – | – | –
10 | 111 to 112 °C | > 25000 nM | > 25000 nM | O=[N+]([O-])c1cccc(/C=C/c2ccnc3ccccc23)c1 [Compound 10] | – | – | – | –
11 | 228 to 229 °C | > 25000 nM | > 25000 nM | O=[N+]([O-])c1ccc(/C=C/c2ccnc3ccccc23)cc1 [Compound 11] | – | – | – | –
12 | – | – | – | COc1cccc2c1C(=O)c1c(O)c3c(c(O)c1C2=O)C[C@@](O)(C(=O)CO)C[C@@H]3O[C@H]1C[C@H](N)[C@H](O)[C@H](C)O1 [Doxorubicin, reference compound] | 140 ± 30 nM | 0.41 | 0.37 | SI (selectivity index) U-251 ([4]; relative to NHDF): 2.80; IC50 ([4]; Homo sapiens, U-251, MTS, 72-h incubation): 50 ± 20 nM; SI (selectivity index) K562 ([5]; relative to NHDF): 7.00; IC50 ([5]; Homo sapiens, K562, MTS, 72-h incubation): 20 ± 10 nM; GLUT-1 protein level vs control [6]: decrease; SI (selectivity index) PANC-1 ([7]; relative to NHDF): 0.19; IC50 ([7]; Homo sapiens, PANC-1, MTS, 72-h incubation): 730 ± 90 nM; SI (selectivity index) AsPC-1 ([8]; relative to NHDF): 0.16; IC50 ([8]; Homo sapiens, ASPC1, MTS, 72-h incubation): 860 ± 130 nM; IC50 ([1]; Homo sapiens, HCT-116): 340 ± 40 nM; IC50 ([2]; Homo sapiens, HCT-116): 380 ± 30 nM

Row | Compound | melting point | IC50 ([1]; Homo sapiens, HCT-116, 72 h) | IC50 ([2]; Homo sapiens, HCT-116, 72 h) | IC50 ([3]; NHDF) | SI (selectivity index) HCT 116 p53+/+ [1] | SI (selectivity index) HCT 116 p53-/- [2] | also measured
13 | O=[N+]([O-])c1ccc(/C=C/c2ccnc3ccccc23)c([N+](=O)[O-])c1 [Compound 12] | 200 to 201 °C | – | – | – | – | – | IC50 ([1]; Homo sapiens, HCT-116): > 25000 nM; IC50 ([2]; Homo sapiens, HCT-116): > 25000 nM

Source: paper PMC11574108, “4-Furanylvinylquinoline derivative as a new scaffold for the design of oxidative stress initiator and glucose transporter inhibitor drugs” (Scientific Reports, 2024)
